Reference: patent US10172875B2, “Therapeutic combinations comprising anti-FOLR1 immunoconjugates” (ImmunoGen, Inc., priority 2015, dated 2019)
Read-outs that look alike come from different tables or passages of the source.

Key:
[1] = system: OV90 serous ovarian tumor xenografts; test: Antitumor activity of IMGN853 (2.5 mg/kg), bevacizumab and combination in OV90 tumor model (Example 3); assay type: in vivo, SCID mice; details: IMGN853 2.5 mg/kg 1× and/or bevacizumab 5 mg/kg 1×
From the text: FIG. 2B depicts the results.

[2] = system: platinum-resistant ovarian cancer PDXs; test: IMGN853 with bevacizumab in platinum-resistant ovarian cancer PDX, 102-day study (FIG. 11B); assay type: in vivo, mice; details: IMGN853 5 mg/kg QWx2, bevacizumab 5 mg/kg QWx2, alone or combined
From the text: Tumor growth was monitored out to 102 days. * P=0.011; ** P=0.018; ns, not significant (Wilcoxon test, non-adjusted).

[3] = system: OV90 serous ovarian tumor xenografts; test: Antitumor activity of IMGN853 (1.25 mg/kg), paclitaxel, bevacizumab and combinations in OV90 tumor model (Example 4); assay type: in vivo, SCID mice; details: single doses: IMGN853 1.25 mg/kg, paclitaxel 10 mg/kg, bevacizumab 5 mg/kg
Description: Mice were randomized into groups (n=8 per group) by tumor volume and subsequently dosed on Day 14 post-inoculation. All treatments consisted of single doses (1×).
Tumor volumes were measured one to two times weekly in three dimensions using a caliper. […] Body weights were measured twice per week as an index of toxicity.

[4] = system: IGROV-1 ovarian tumor xenografts; test: Antitumor activity of IMGN853, bevacizumab and combination in IGROV-1 tumor model (Example 5); assay type: in vivo, SCID mice; details: IMGN853 5 mg/kg 1× and/or bevacizumab 5 mg/kg 1×
From the text: All treatments consisted of single doses (1×).
FIG. 4 depicts the results.

[5] = system: ST088 human epithelial ovarian cancer (EOC) patient-derived tumor xenografts; test: Antitumor activity of IMGN853, bevacizumab, paclitaxel and combinations in ST088 tumor model (Example 6); assay type: in vivo, SCID mice; details: QWx2: IMGN853 5 mg/kg, bevacizumab 5 mg/kg, paclitaxel 10 mg/kg
Description: Tumor volumes were measured twice weekly in three dimensions using a caliper.

[6] = system: OV90 serous ovarian tumor xenografts; test: Antitumor activity of IMGN853, cediranib and combination in OV90 tumor model (Example 9); assay type: in vivo, SCID mice; details: IMGN853 2.5 mg/kg 1× and/or cediranib 1.5 mg/kg qd×5
From the text: The term “respond favorably” generally refers to causing a beneficial state in a subject. With respect to cancer treatment, the term refers to providing a therapeutic effect on the subject. Positive therapeutic effects in cancer can be measured in a number of ways (See, W. A. Weber, J. Nucl. Med. 50:1S-10S (2009)). For example, tumor growth inhibition, molecular marker expression, serum marker expression, and molecular imaging techniques can all be used to assess therapeutic efficacy of an anti-cancer therapeutic. Log10 Cell Kill (LCK) can be used to quantify the tumor cell kill. Log10 cell kill (LCK) is calculated with the formula LCK=(T−C)/Td×3.32, where (T−C) (or tumor growth delay (TGD)) is the median time (in days) for the treatment group and control group tumors to reach a predetermined size (tumor-free survivors excluded). Td is the tumor doubling time (estimated from nonlinear exponential curve fit of daily median of control tumor growth), and 3.32 is the number of cell doublings per log of cell growth. The ability to reduce tumor volume may be assessed, for example, by measuring a % T/C value, which is the median tumor volume of treated subjects divided by the median tumor volume of the control subjects. With respect to tumor growth inhibition, according to NCI standards, a T/C≤42% is the minimum level of anti-tumor activity. A T/C<10% is considered a high anti-tumor activity level, with T/C (%)=Median tumor volume of the treated/Median tumor volume of the control×100. A favorable response can be assessed, for example, by increased progression-free survival (PFS), disease-free survival (DFS), or overall survival (OS), complete response (CR), partial response (PR), or, in some cases, stable disease (SD), a decrease in progressive disease (PD), a […] time to progression (TTP), a decrease in CA125 in the case of ovarian cancer, or any combination thereof.

IGROV-1 cells = test: Cell cycle analysis, IMGN853 and carboplatin (FIG. 9B); assay type: cell-based; details: carboplatin 20 μM, IMGN853 8 nM, alone or combined, 6 hours, then 24 hour drug-free medium
Description: Cells were washed, and cell cycle distribution determined following 24 hour culture in drug-free medium.

γH2AX = γH2AX immunoblot of cellular extracts, IMGN853 and carboplatin (FIG. 9C); assay type: cell-based; details: carboplatin 40 μM, IMGN853 16 nM, alone or combined, 6 hours, then 18 hours drug-free medium
From the text: Cellular extracts were immunoblotted for γH2AX or actin (loading control) as indicated.

[7] = system: platinum-sensitive ovarian cancer patient derived xenografts (PDXs); test: IMGN853 and carboplatin, single administration, in platinum-sensitive ovarian cancer PDX (FIG. 9D); assay type: in vivo, SCID mice
Description: Data are expressed as mean and standard error of the mean (SEM) for each time point.
To examine whether these in vitro cellular effects translated to improved efficacy in vivo, mice bearing patient-derived xenografts (PDX) obtained from an individual with EOC were treated with IMGN853 and carboplatin, both as single agents and in combination (FIG. 9D). […] Animals received a single administration of IMGN853 (2.5 mg/kg) or carboplatin (80 mg/kg), and each regimen inhibited tumor growth as monotherapy (T/C values of 43% and 20% on day 39, respectively).

[8] = system: platinum-resistant ovarian cancer PDXs; test: IMGN853 and PLD in platinum-resistant EOC PDX model (FIG. 10C, 10D); assay type: in vivo, SCID mice; details: QWx2: IMGN853 5 mg/kg or PLD 4 mg/kg; day 49
Description: Data are expressed as mean and SEM for each time point.
Mean values are plotted against vehicle controls.
To extend the in vitro observations, the combination of IMGN853 and PLD was examined in a platinum-resistant EOC PDX model (FIG. 10C). Vehicle-treated animals progressed quickly and were removed from study when tumors reached volumes between 1500-2000 mm^3. QWx2 dosing of IMGN853 (5 mg/kg) inhibited tumor growth by 81% on day 49, and a similar degree of inhibition (83%) was seen when PLD (4 mg/kg) was administered on the same schedule.

[9] = system: H2110 non-small cell lung cancer (NSCLC) tumor xenografts; details: for CR / PR: responders/animals
Description: Mice were randomized into groups (n=6-10 per group) by tumor volume and subsequently dosed on Day 7 post-inoculation. All treatments consisted of single doses (1×).
Tumor volumes were measured one to two times weekly in three dimensions using a caliper. The tumor volume was expressed in mm^3 using the formula V=Length×Width×Height×½ (Tomayko 1989). Body weights were measured twice per week as an index of test agent toxicity. Activity was assessed as described in Bissery et al. (1991).

[10] = IMGN853 1.5 mg/kg 1×, alone or with bevacizumab 5 mg/kg 1×
[11] = IMGN853 3 mg/kg 1× and/or bevacizumab 5 mg/kg 1×

IMGN853 was tested, and the T/C [1] was 36%, the TFS [1] was 0/6 and the antitumor activity rating [1] was “active”. For the same substance, the CR ([1]; responders/animals) was 0/6, the antitumor effect [2] was “moderate activity” and the TFS [3] was 0/7. For the same substance, the antitumor activity rating [3] was “active”, the T/C ([3]; alone or combined) was 37% and the CR ([3]; responders/animals) was 0/7. The T/C [4] was 20%, the TFS [4] was 0/4 and the antitumor activity rating [4] was “active”. For the same substance, the CR ([4]; responders/animals) was 0/4, the antitumor activity rating [5] was “active” and the T/C ([5]; alone or combined) was 31%. The CR ([5]; responders/animals) was 0/8, the PR ([5]; responders/animals) was 0/8 and the T/C [6] was 31%. For the same substance, the antitumor activity rating [6] was “active”, the LCK ([6]; Log10 cell kill) was 0.5 and the PR ([6]; responders/animals) was 0/6. For the same substance, the “T−C” value ([6]; tumor growth delay) was 13 days, the cell cycle distribution (IGROV-1 cells) was “enrichment of cells in G2/M” and the γH2AX expression (γH2AX) was “induced γH2AX expression in IGROV-1 cells and to levels higher than those seen following carboplatin exposure alone”. For the same substance, the “single agent activity, previously determined (data not shown)” value ([7]; dose not stated) was “robust single agent activity”, the T/C ([7]; single administration: IMGN853 2.5 mg/kg and/or carboplatin 80 mg/kg, day 39) was 43% and the tumor growth inhibition [8] was 81%. For the same substance, the T/C [9, 10] was 64%, the TFS [9, 10] was 0/6 and the antitumor activity rating [9, 10] was “inactive”. The CR [9, 10] was 0/6, the PR [9, 10] was 1/6 and the body weight loss ([9]; IMGN853 1.5 mg/kg monotherapy, Day 25 post-inoculation) was 8%. For the same substance, the T/C [9, 11] was 25%, the TFS [9, 11] was 0/6 and the antitumor activity rating [9, 11] was “active”. The CR [9, 11] was 0/6, the PR [9, 11] was 2/6 and the body weight loss ([9]; IMGN853 3 mg/kg monotherapy, Day 42 post-inoculation) was 9%.
